Counter-ions that a name gives are not always drawn.
Test system: muscle progenitors derived from DMD hiPSC
Experiment: Myotube assay: total myotube area per well (alpha-actinin staining)
Assay type: cell-based, human
Details: Homo sapiens, Myotube, 72 h, DMD or WT cell source not given; for Emax: efficacy, MA = normalized Myotube Area, 3 days incubation; for EC50: myogenic activity, half-maximal generation of myotubes, 10 points dose-response 1.5 nM to 30 µM, 3 days
Procedure: An in vitro assay for assessing the efficacy of compounds for use in treating, ameliorating, delaying, curing and/or preventing a disease or condition associated with muscle cells and/or satellite cells is described in example 78. Herein, the generation of myotubes and satellite cells after adding a compound to a myotube assay workflow is assessed. Said myotube assay workflow is derived from wild-type or DMD human induced pluripotent stem cells (WT hiPSC or DMD hiPSC). Before the addition of said compound, the assay comprises satellite-like cells, but no significant amount of myotubes.
The efficacy of said compound for use in treating, ameliorating, delaying, curing and/or preventing a disease or condition associated with muscle cells and/or satellite cells is positively correlated with the generation of myotubes (i.e. the increase of the area occupied by myotubes on the assay) and/or satellite cells (i.e. the increase of the number of satellite cells) in the assay after adding said compound. The generation of myotubes by the addition of said compound is expressed as the EC50 value, the concentration of said compound that corresponds with the half-maximal generation of myotubes, and the MA (normalized myotube area) value, the normalized area occupied by generated myotubes on the assay. […] Since muscle cells are formed from myotubes during myogenesis, the generation of myotubes in the assay is a good indicator of the ability of said compound to induce the formation of functional muscle cells in vivo. The number of satellite cells is measured as the percentage of Pax7 positive cells, relative to the total number of cells in the assay, as shown in Figure 3. The percentage of Pax7 is a good indicator of the ability of said compound to induce the formation of satellite cells which are able to play a role in muscle repair and regeneration in vivo.
DMD human induced pluripotent stem cells (hereafter "DMD hiPSC"), generated from the NCRM-1 hiPSC WT cell line by gene editing, or WT human induced pluripotent stem cells (hereafter "WT hiPSC"), being NCRM-1 hiPSC wt cell line, have been differentiated according to Chal et al. 2015, 2016, to produce muscle progenitors (hereafter "hMP"). The hMP population contains satellite-like cells (i.e Pax7-positive cells) and satellite cells' progenies (i.e. Myogenin-positive cells).
Figure 1 provides an example of a Myotube assay workflow. At day 0, hMP are thawed and 3.1 million cells are plated into a T75-flask coated with hESC-qualified Matrigel™ (Corning) in SkGM proliferating medium (PromoCells), supplemented with 5 µM Y-27632 (Tocris Bioscience). On day 2, SkGM proliferating medium is refreshed. On day 4, hMP are harvested and transferred into a 384-well plate coated with collagen type I at a density of 3500 cells/well in a DMEM-based medium, containing 5% of knockout serum replacement (Gibco), 1% PenStrep (Gibco), 1% MEM NEAA (Gibco) and 0.1 mM 2-mercaptoethanol (Gibco) (hereafter "K5 medium") and 5 µM Y-27632. Compounds to be tested are then added in the medium and incubated for 3 days at 37°C. On day 7, cells are fixed and immunostained. For example, myotubes (alpha-actinin staining) and satellite-like (Pax7 staining) cells can be analyzed for total myotube area per well or Pax7-positive cell quantification.
DMD hMP were put in the Myotube assay according to the workflow described in Example 2.1. In particular, compound (i) was added at concentrations ranging from 1.5 nM to 30 µM, starting from day 4. hMP were cultivated for three more days in presence of compound (i), then fixed and analyzed for quantification of total myotube area per well. Duplicates of each condition were averaged.

EC50 [nM] | Compound | Emax [%]
< 500 | CC(C)(C)c1cnc(NC(=O)Nc2ccc(Oc3ccnc4[nH]c(=O)cnc34)c3ccccc23)s1 [(ba), 1-(5-(tert-butyl)thiazol-2-yl)-3-(4-((3-oxo-3,4-dihydropyrido[2,3-b]pyrazin-8-yl)oxy)naphthalen-1-yl)urea] | ≥ 75
< 500 | CSc1cc(Oc2ccnc3[nH]c(=O)cnc23)ccc1NC(=O)Nc1cc(C(C)(C)C)nn1-c1ccc(C)nc1 [(bd), 1-(3-(tert-butyl)-1-(6-methylpyridin-3-yl)-1 H-pyrazol-5-yl)-3-(2-(methylthio)-4-((3-oxo-3,4-dihydropyrido[2,3-b]pyrazin-8-yl)oxy)phenyl)urea] | ≥ 75
≥ 5000 | CSc1cc(Oc2ccnc3[nH]c(=O)cnc23)ccc1NC(=O)Nc1cc(C(C)(C)C)nn1CCCN1CCOCC1 [(bh), 1-(3-(tert-butyl)-1-(3-morpholinopropyl)-1 H-pyrazol-5-yl)-3-(2-(methylthio)-4-((3-oxo-3,4-dihydropyrido[2,3-b]pyrazin-8-yl)oxy)phenyl)urea] | ≥ 75
≥ 5000 | CC(C)c1cc(Oc2ccnc3[nH]c(=O)cnc23)ccc1NC(=O)Nc1cc(C(C)(C)C)nn1-c1ccccc1 [(bk), 1-(3-(tert-butyl)-1-phenyl-1H-pyrazol-5-yl)-3-(2-isopropyl-4-((3-oxo-3,4-dihydropyrido[2,3-b]pyrazin-8-yl)oxy)phenyl)urea] | ≥ 75
< 500 | CSc1cc(Oc2ccnc3[nH]c(=O)cnc23)ccc1NC(=O)Nc1cc(C(C)(C)C)nn1-c1ccc2ncccc2c1 [(bm), 1-(3-(tert-butyl)-1-(quinolin-6-yl)-1 H-pyrazol-5-yl)-3-(2-(methylthio)-4-((3-oxo-3,4-dihydropyrido[2,3-b]pyrazin-8-yl)oxy)phenyl)urea] | ≥ 75
≥ 5000 | CSc1cc(Oc2ccnc3[nH]c(=O)cnc23)ccc1NC(=O)Nc1cc(C(C)(C)C)nn1C1CCCCC1 [(bn), 1-(3-(tert-butyl)-1-cyclohexyl-1H-pyrazol-5-yl)-3-(2-(methylthio)-4-((3-oxo-3,4-dihydropyrido[2,3-b]pyrazin-8-yl)oxy)phenyl)urea] | 50 to 75
< 500 | CC(C)(C)c1cc(NC(=O)Nc2ccc(Oc3ccnc4[nH]c(=O)cnc34)c(F)c2F)n(-c2ccccc2)n1 [(bo), 1-(3-(tert-butyl)-1-phenyl-1 H-pyrazol-5-yl)-3-(2,3-difluoro-4-((3-oxo-3,4-dihydropyrido[2,3-b]pyrazin-8-yl)oxy)phenyl)urea] | ≥ 75
500 to 1000 | CC(C)(C)c1cc(NC(=O)Nc2cc(F)c(Oc3ccnc4[nH]c(=O)cnc34)cc2F)n(-c2ccccc2)n1 [(bt), 1-(3-(tert-butyl)-1-phenyl-1 H-pyrazol-5-yl)-3-(2,5-difluoro-4-((3-oxo-3,4-dihydropyrido[2,3-b]pyrazin-8-yl)oxy)phenyl)urea] | ≥ 75
≥ 5000 | CSc1cc(Oc2cccc3[nH]c(=O)cnc23)ccc1NC(=O)Nc1cc(C(C)(C)C)nn1-c1ccccc1 [(bu), 1-(3-(tert-butyl)-1-phenyl-1H-pyrazol-5-yl)-3-(2-(methylthio)-4-((2-oxo-1,2-dihydroquinoxalin-5-yl)oxy)phenyl)urea] | 25 to 50
≥ 5000 | CSc1cc(Oc2ncnc3[nH]c(=O)cnc23)ccc1NC(=O)Nc1cc(C(C)(C)C)nn1-c1ccccc1 [(bv), 1-(3-(tert-butyl)-1-phenyl-1H-pyrazol-5-yl)-3-(2-(methylthio)-4-((7-oxo-7,8-dihydropteridin-4-yl)oxy)phenyl)urea] | ≥ 75
500 to 1000 | CSc1cc(Oc2ccnc3[nH]c(=O)cnc23)ccc1NC(=O)Nc1cc(C(C)(C)C)no1 [(bx), 1-(3-(tert-butyl)isoxazol-5-yl)-3-(2-(methylthio)-4-((3-oxo-3,4-dihydropyrido[2,3-b]pyrazin-8-yl)oxy)phenyl)urea] | ≥ 75

Continued, compound first:

Compound | EC50 [nM] | Emax [%]
CC(C)c1cc(NC(=O)Nc2ccc(Oc3ccnc4[nH]c(=O)cnc34)cc2F)n(-c2ccccc2)n1 [(b), 1-(2-fluoro-4-((3-oxo-3,4-dihydropyrido[2,3-b]pyrazin-8-yl)oxy)phenyl)-3-(3-isopropyl-1-phenyl-1 H-pyrazol-5-yl)urea] | ≥ 5000 | 25 to 50
CC(C)(C)c1cc(NC(=O)Nc2ccc(Oc3ccnc4[nH]c(=O)cnc34)c3ccccc23)n(-c2ccc3ncccc3c2)n1 [(bb), 1-(3-(tert-butyl)-1-(quinolin-6-yl)-1 H-pyrazol-5-yl)-3-(4-((3-oxo-3,4-dihydropyrido[2,3-b]pyrazin-8-yl)oxy)naphthalen-1-yl)urea] | < 500 | ≥ 75
CSc1cc(Oc2ccnc3c2CCCN3)ccc1NC(=O)Nc1cc(C(C)(C)C)nn1-c1ccccc1 [(be), 1-(3-(tert-butyl)-1-phenyl-1H-pyrazol-5-yl)-3-(2-(methylthio)-4-((5,6,7,8-tetrahydro-1,8-naphthyridin-4-yl)oxy)phenyl)urea] | 1000 to 5000 | ≥ 75
CNC(=O)c1cc(Oc2ccc(NC(=O)Nc3cc(C(C)(C)C)nn3-c3ccc4ncccc4c3)c3ccccc23)ccn1 [(bf), 4-((4-(3-(3-(tert-butyl)-1-(quinolin-6-yl)-1 H-pyrazol-5-yl)ureido)naphthalen-1-yl)oxy)-N-methylpicolinamide] | 1000 to 5000 | ≥ 75
CSc1cc(Oc2ccnc(NC(=O)OC(C)(C)C)c2)ccc1NC(=O)Nc1cc(C(C)(C)C)nn1-c1ccccc1 [(bi), tert-butyl (4-(4-(3-(3-(tert-butyl)-1-phenyl-1H-pyrazol-5-yl)ureido)-3-(methylthio)phenoxy)pyridin-2-yl)carbamate] | < 500 | ≥ 75
CSc1cc(Oc2ccnc(N)c2)ccc1NC(=O)Nc1cc(C(C)(C)C)nn1-c1ccccc1 [(bj), 1-(4-((2-aminopyridin-4-yl)oxy)-2-(methylthio)phenyl)-3-(3-(tert-butyl)-1-phenyl-1H-pyrazol-5-yl)urea hydrochloride] | ≥ 5000 | ≥ 75
CC(C)(C)c1cc(NC(=O)Nc2ccc(Oc3ccncc3)cc2)n(-c2ccccc2)n1 [(bl), 1-(3-(tert-butyl)-1-phenyl-1 H-pyrazol-5-yl)-3-(4-(pyridin-4-yloxy)phenyl)urea] | 500 to 1000 | 50 to 75
CSc1cc(Oc2ccnc(NC(=O)CN(C)C(=O)OC(C)(C)C)c2)ccc1NC(=O)Nc1cc(C(C)(C)C)nn1-c1ccccc1 [(bp), tert-butyl (2-((4-(4-(3-(3-(tert-butyl)-1-phenyl-1H-pyrazol-5-yl)ureido)-3-(methylthio)phenoxy)pyridin-2-yl)amino)-2-oxoethyl)(methyl)carbamate] | < 500 | ≥ 75
CNCC(=O)Nc1cc(Oc2ccc(NC(=O)Nc3cc(C(C)(C)C)nn3-c3ccccc3)c(SC)c2)ccn1 [(bq), N-(4-(4-(3-(3-(tert-butyl)-1-phenyl-1H-pyrazol-5-yl)ureido)-3-(methylthio)phenoxy)pyridin-2-yl)-2-(methylamino)acetamide] | – | ≥ 75
CNC(=O)c1cc(Oc2ccc(NC(=O)Nc3cc(C(C)(C)C)nn3-c3ccccc3)c(SC)c2)ccn1 [(br), 4-(4-(3-(3-(tert-butyl)-1-phenyl-1H-pyrazol-5-yl)ureido)-3-(methylthio)phenoxy)-N-methylpicolinamide] | ≥ 5000 | ≥ 75
CSc1cc(Oc2ccnc3nccnc23)ccc1NC(=O)Nc1cc(C(C)(C)C)nn1-c1ccccc1 [(bs), 1-(3-(tert-butyl)-1-phenyl-1 H-pyrazol-5-yl)-3-(2-(methylthio)-4-(pyrido[2,3-b]pyrazin-8-yloxy)phenyl)urea] | ≥ 5000 | ≥ 75

— patent EP4029501A1, “COMBINATION OF POLYAROMATIC UREA DERIVATIVES AND GLUCOCORTICOID OR HDAC INHIBITOR FOR THE TREATMENT OF DISEASES OR CONDITIONS ASSOCIATED WITH MUSCLE CELLS AND/OR SATELLITE CELLS” (Anagenesis Biotechnologies, priority 2021, dated 2022)
